In PubChem BioAssay AID2060619 (Molecular Pharmacology Branch, DTP, NCI, 2025):

Tested on: 323965-272-R-J2-PDC complex spheroid viability
Test: Anticancer human tumor 323965-272-R-J2-PDC patient-derived pancreatic carcinoma cell line growth inhibition [CLK]
Settings: for IC50: curve of first compound; for viability, T/C: stronger effect = lower value
Procedure, shortened: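 Patient-derived tumor cells grown as complex spheroids with HUVEC endothelial cells and mesenchymal stem cells, treated with drug combinations. Concentrations descend in half-log steps from near clinical Cmax, or from 10 microM if Cmax unknown.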

[1] = second compound 0.0316 µM, first compound 0.00316 µM
[2] = second compound 0.0316 µM, first compound 0.01 µM
[3] = second compound 0.0316 µM, first compound 0.0316 µM
[4] = second compound 0.0316 µM, first compound 0.1 µM
[5] = second compound 0.1 µM, first compound 0.00316 µM
[6] = second compound 0.1 µM, first compound 0.01 µM
[7] = second compound 0.1 µM, first compound 0.0316 µM
[8] = second compound 0.1 µM, first compound 0.1 µM
[9] = second compound 0.316 µM, first compound 0.00316 µM
[10] = second compound 0.316 µM, first compound 0.01 µM
[11] = second compound 0.316 µM, first compound 0.0316 µM
[12] = second compound 0.316 µM, first compound 0.1 µM
[13] = second compound 1 µM, first compound 0.00316 µM
[14] = second compound 1 µM, first compound 0.01 µM
[15] = second compound 1 µM, first compound 0.0316 µM
[16] = second compound 1 µM, first compound 0.1 µM
[17] = second compound 3.16 µM, first compound 0.00316 µM
[18] = second compound 3.16 µM, first compound 0.01 µM
[19] = second compound 3.16 µM, first compound 0.0316 µM
[20] = second compound 3.16 µM, first compound 0.1 µM
[21] = second compound 10 µM, first compound 0.00316 µM
[22] = second compound 10 µM, first compound 0.01 µM
[23] = second compound 10 µM, first compound 0.0316 µM
[24] = second compound 10 µM, first compound 0.1 µM
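Note: spheroids exposed to agents for seven days before readout.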
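Throughout, for viability, T/C: percent of DMSO vehicle control wells so 100% = untreated growth.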

CCc1c2c(nc3ccc(O)cc13)-c1cc3c(c(=O)n1C2)COC(=O)[C@]3(O)CC + CNC(=O)c1ccc(Nc2nc(OC3CCCC3)c3c(-c4ccc5nc(C)oc5c4)c[nH]c3n2)c(OC)c1
IC50 (second compound 0.0316 µM): 7.88 nM
IC50 (second compound 0.1 µM): 8.14 nM
IC50 (second compound 0.316 µM): 4.18 nM
IC50 (second compound 1 µM): < 3.16 nM
IC50 (second compound 3.16 µM): < 3.16 nM
IC50 (second compound 10 µM): < 3.16 nM
viability, T/C [1]: 73.5%
viability, T/C [2]: 42.4%
viability, T/C [3]: 33%
viability, T/C [4]: 30.2%
viability, T/C (second compound 0.0316 µM, first compound 0.316 µM): 24.4%
viability, T/C (second compound 0.0316 µM, first compound 1 µM): 23.4%
viability, T/C [5]: 61%
viability, T/C [6]: 47.1%
viability, T/C [7]: 39%
viability, T/C [8]: 29.9%
viability, T/C (second compound 0.1 µM, first compound 0.316 µM): 25%
viability, T/C (second compound 0.1 µM, first compound 1 µM): 24%
viability, T/C [9]: 54.1%
viability, T/C [10]: 38.7%
viability, T/C [11]: 30%
viability, T/C [12]: 27.9%
viability, T/C (second compound 0.316 µM, first compound 0.316 µM): 18.4%
viability, T/C (second compound 0.316 µM, first compound 1 µM): 16.8%
viability, T/C [13]: 34.8%
viability, T/C [14]: 25.8%
viability, T/C [15]: 21.9%
viability, T/C [16]: 16.6%
viability, T/C (second compound 1 µM, first compound 0.316 µM): 15.2%
viability, T/C (second compound 1 µM, first compound 1 µM): 10.9%
viability, T/C [17]: 30.9%
viability, T/C [18]: 30.1%
viability, T/C [19]: 25.3%
viability, T/C [20]: 14.3%
viability, T/C (second compound 3.16 µM, first compound 0.316 µM): 17%
viability, T/C (second compound 3.16 µM, first compound 1 µM): 11.9%
viability, T/C [21]: 30.5%
viability, T/C [22]: 23.6%
viability, T/C [23]: 20.9%
viability, T/C [24]: 16%
viability, T/C (second compound 10 µM, first compound 0.316 µM): 14.2%
viability, T/C (second compound 10 µM, first compound 1 µM): 8.54%

Cn1ncnc1[C@H]1c2n[nH]c(=O)c3cc(F)cc(c23)N[C@@H]1c1ccc(F)cc1 + CNC(=O)c1ccc(Nc2nc(OC3CCCC3)c3c(-c4ccc5nc(C)oc5c4)c[nH]c3n2)c(OC)c1
IC50 (second compound 0.0316 µM): > 100 nM
IC50 (second compound 0.1 µM): > 100 nM
IC50 (second compound 0.316 µM): > 100 nM
IC50 (second compound 1 µM): < 0.316 nM
IC50 (second compound 3.16 µM): < 0.316 nM
IC50 (second compound 10 µM): < 0.316 nM
viability, T/C (second compound 0.0316 µM, first compound 0.000316 µM): 126%
viability, T/C (second compound 0.0316 µM, first compound 0.001 µM): 118%
viability, T/C [1]: 104%
viability, T/C [2]: 110%
viability, T/C [3]: 86.8%
viability, T/C [4]: 97.1%
viability, T/C (second compound 0.1 µM, first compound 0.000316 µM): 86.2%
viability, T/C (second compound 0.1 µM, first compound 0.001 µM): 75.3%
viability, T/C [5]: 78.9%
viability, T/C [6]: 85.3%
viability, T/C [7]: 76.1%
viability, T/C [8]: 66%
viability, T/C (second compound 0.316 µM, first compound 0.000316 µM): 69.6%
viability, T/C (second compound 0.316 µM, first compound 0.001 µM): 66.7%
viability, T/C [9]: 55.5%
viability, T/C [10]: 67.8%
viability, T/C [11]: 70%
viability, T/C [12]: 51.6%
viability, T/C (second compound 1 µM, first compound 0.000316 µM): 41.3%
viability, T/C (second compound 1 µM, first compound 0.001 µM): 45.5%
viability, T/C [13]: 48.5%
viability, T/C [14]: 38.3%
viability, T/C [15]: 52%
viability, T/C [16]: 43.4%
viability, T/C (second compound 3.16 µM, first compound 0.000316 µM): 36.7%
viability, T/C (second compound 3.16 µM, first compound 0.001 µM): 47.2%
viability, T/C [17]: 42.4%
viability, T/C [18]: 43.9%
viability, T/C [19]: 51.5%
viability, T/C [20]: 43.3%
viability, T/C (second compound 10 µM, first compound 0.000316 µM): 37.1%
viability, T/C (second compound 10 µM, first compound 0.001 µM): 36.6%
viability, T/C [21]: 42.6%
viability, T/C [22]: 45.7%
viability, T/C [23]: 43.1%
viability, T/C [24]: 43.1%
